Measured values: publication PMC11215771 (Journal of Medicinal Chemistry, 2024)

Target: T1, hBACE2 fused to EGFP in HEK293T cells (Homo sapiens, UniProt Q9Y5Z0)
T1 construct: expressed in transfected cells; host or cells: HEK293T
T1 sequence (Q9Y5Z0 63-518): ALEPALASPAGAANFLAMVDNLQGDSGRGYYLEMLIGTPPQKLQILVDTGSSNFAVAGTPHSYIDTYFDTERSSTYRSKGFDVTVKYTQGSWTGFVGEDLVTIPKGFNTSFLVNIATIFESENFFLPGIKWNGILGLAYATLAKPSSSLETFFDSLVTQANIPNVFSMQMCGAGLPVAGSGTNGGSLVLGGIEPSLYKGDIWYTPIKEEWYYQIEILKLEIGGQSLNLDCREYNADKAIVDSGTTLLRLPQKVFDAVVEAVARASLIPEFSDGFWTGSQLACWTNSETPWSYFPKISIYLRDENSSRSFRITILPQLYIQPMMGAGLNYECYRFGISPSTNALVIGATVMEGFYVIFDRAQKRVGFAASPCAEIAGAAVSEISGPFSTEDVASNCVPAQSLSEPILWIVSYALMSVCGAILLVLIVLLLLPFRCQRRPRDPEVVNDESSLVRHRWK
Assay: Staining of transfected HEK293T cells, confocal imaging: BACE2
Type: cell-based
Method: Next, we explored the performance of the new Alexa-C3 compounds in living cells. Because of the rather hydrophilic properties, we exclusively targeted the cell membrane. To prevent intracellular accumulation, we first performed stainings at 4 °C arresting ATP-dependent endocytosis. […] All of the constructs were tagged at the C-terminus with either EGFP or mCherry to visualize subcellular expression. […] With these experiments, we want to exclude that a lack of staining is caused by an impaired accessibility of the protein by Alexa-C3 compounds. […] We then tested samples with BACE1 expression after fixation of the cells with paraformaldehyde (PFA).
(D) All conjugates were also probed on cells fixed with 4% paraformaldehyde (PFA) for 15 min prior to staining. […] Scale bars represent 5 μm (A–D) and 20 μm (E). […] Samples were excited at 488, 561, and 633 nm, respectively.
HEK293T cells (ATCC accession number CRL-11268) were maintained in Dulbecco's modified Eagle's medium (Sigma-Aldrich D6046) with 1g/L glucose, supplemented with 10% FCS (Merck) and 1% penicillin/streptomycin (PAA). CHO-K1 cells (ATCC #CCL-61) were maintained in modified phenol red free RPMI-1640 medium (Sigma-Aldrich, R7509), supplemented with 2 mM L-glutamine (Sigma-Aldrich, G7513), and 10% FCS (Merck). Cells were cultured at 37 °C in a 5% CO2 atmosphere. […]

staining of BACE2: not labeled
SMILES: C[C@@H](NC(=O)c1cc(C(=O)N[C@@H](Cc2ccccc2)[C@H](O)CNC2CC2)cc(N(C)S(=O)(=O)CCCNC(=O)CCCCCC2(C)C(/C=C/C=C/C=C3/N(CCCS(=O)(=O)O)c4ccc(S(=O)(=O)O)cc4C3(C)C)=[N+](CCCS(=O)(=O)[O-])c3ccc(S(=O)(=O)O)cc32)c1)c1ccccc1 (stereo partly shown)
